# Experiments:
# [1] = system: genotype A, “Long” strain RSV; test: RSV-A assay (CPE, ATPlite readout in Hep-2 cells); assay type: cell-based, Human respiratory syncytial virus; details: human respiratory syncytial virus, activity class
# Method in brief: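 Protection from RSV-induced cytopathic effect measured by ATP content (ATPlite) after 5-day culture. Infection used genotype A Long virus at MOI 0.1 on 8,000 Hep-2 cells per well, with compound serially diluted 2-fold; values are EC50.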
# [2] = system: HMPV clinical isolate A2 strain TN 94-49; test: HMPV antiviral assay, Method 1 (LLC-MK2 cells, ATP-Lite); assay type: cell-based; details: human metapneumovirus, hMPV A2 TN/94-49, LLC-MK2 cells
# Method in brief: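 LLC-MK2 cells (5,000/well) infected in suspension with HMPV A2 TN 94-49 at MOI 0.005 in serum-free OptiMEM with 2 μg/mL final TPCK-trypsin, compounds in duplicate from 2 μM top, 2.5-fold, 10 points. After 7 days at 37° C, cell health by ATP-Lite luminescence normalised to virus and cell controls; EC50 from four-parameter fit.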
# [3] = system: HMPV clinical isolate A2 strain TN 94-49; test: HMPV antiviral assay, Method 2 (LLC-MK2 cells with CP-100-356, ATP-Lite); assay type: cell-based; details: human metapneumovirus, 168 h; hMPV A2 TN/94-49, LLC-MK2 cells with 4 μM CP-100-356, 7 days, ATP-Lite
# Method in brief: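 LLC-MK2 rhesus kidney cells (5,000/well) infected in suspension with HMPV A2 TN 94-49 at MOI 0.16, in serum-free medium with final 2 μg/mL TPCK-trypsin and 2 μM CP-100-356. Compounds tested in duplicate from 200 nM, 2.5-fold, 10 points; 7 days at 37 °C. Cell health by ATP-Lite luminescence; EC50 by four-parameter fit.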
EC50 [1] [nM],EC50 [2] [nM],EC50 [3] [nM],SMILES
< 200,< 500,,COc1cc(C(=O)NC[C@@](O)(c2ccc(F)cc2)c2cc3c(c(-c4ccc5c(c4Cl)OC(F)(F)O5)n2)OC[C@]3(C)C(N)=O)cc2cn(C3CC3)nc12 [Example 25]
< 200,,< 200,COc1cc(C(=O)NC[C@](O)(c2cc3c(c(-n4ncc5c(F)cccc54)n2)OC[C@]3(C)C(N)=O)C2CC2)cc2oc(C3CC3)nc12 [Example 622]
< 200,,< 200,COc1cc(C(=O)NC[C@@](O)(c2ccccc2)c2cc3c(c(-n4ncc5c(F)cccc54)n2)OC[C@]3(C)C(N)=O)cc2cn(C3CC3)nc12 [Example 628]
< 200,,< 200,COc1cc(C(=O)NC[C@@](O)(c2ccccc2)c2cc3c(c(-n4ncc5c(F)cccc54)n2)OC[C@]3(C)C(N)=O)cc2cn(C3(F)CC3)nc12 [Example 629]
< 200,,< 200,COc1cc(C(=O)NC[C@@](O)(c2ccccc2)c2cc3c(c(-n4ncc5c(F)cccc54)n2)OC[C@]3(C)C(N)=O)cc2cc(C3CC3)nn12 [Example 630]
< 200,,< 200,COc1cc(C(=O)NC[C@@](O)(c2ccccc2)c2cc3c(c(-n4ncc5c(F)cccc54)n2)OC[C@]3(C)C(N)=O)cc2oc(C3CC3)nc12 [Example 631]
< 200,,< 200,COc1cc(C(=O)NC[C@](O)(c2cc3c(c(-c4cc(C(F)(F)F)ncc4F)n2)OC[C@]3(C)C(N)=O)C2CC2)cc2cc(C3CC3)nn12 [Example 661]
< 200,,< 200,COc1cc(C(=O)NC[C@](O)(c2cc3c(c(-c4cc(C(F)(F)F)ncc4F)n2)OC[C@]3(C)C(N)=O)C2CC2)cn2cc(C3CC3)nc12 [Example 662]
< 200,,< 200,COc1cc(C(=O)NC[C@](O)(c2cc3c(c(-c4cc(C(F)(F)F)ncc4F)n2)OC[C@]3(C)C(N)=O)C2(F)CC2)cc2oc(C3CC3)nc12 [Example 670]
< 200,,< 200,C[C@]1(C(N)=O)COc2c1cc([C@@](O)(CNC(=O)c1cc(Cl)c3nn(C4CC4)cc3c1)C1(F)CC1)nc2-c1cc(C(F)(F)F)ncc1F [Example 671]
< 200,,< 200,C[C@]1(C(N)=O)COc2c1cc([C@@](O)(CNC(=O)c1cc(OCCO)c3nn(C4CC4)cc3c1)C1CC1)nc2-c1ccc2c(c1Cl)OC(F)(F)O2 [Example 681]
< 200,,< 200,COc1cc(C(=O)NC[C@](O)(c2cc3c(c(-n4ccc5c(F)cccc54)n2)OC[C@]3(C)C(N)=O)C2(F)CC2)cc2cn(C(F)F)nc12 [Example 688]
< 200,,< 200,COc1cc(C(=O)NC[C@](O)(c2cc3c(c(-n4ccc5c(F)cccc54)n2)OC[C@]3(C)C(N)=O)C2(F)CC2)cc2cn(C3(F)CC3)nc12 [Example 689]
< 200,,< 200,COc1cc(C(=O)NC[C@](O)(c2cc3c(c(-n4ccc5c(F)cccc54)n2)OC[C@]3(C)C(N)=O)C2(F)CC2)cn2cc(C3CC3)nc12 [Example 690]
< 200,,< 200,COc1cc(C(=O)NC[C@](O)(c2cc3c(c(-c4ccnc(C5CC5)c4Cl)n2)OC[C@]3(C)C(N)=O)C2CC2)cc2cn(C3CC3)nc12 [Example 721]
< 200,,< 200,COc1cc(C(=O)NC[C@](O)(c2cc3c(c(-c4cncc(OC(F)F)c4Cl)n2)OC[C@]3(C)C(N)=O)C2CC2)cc2cn(C(F)F)nc12 [Example 742]
< 200,,< 200,COc1nccc(-c2nc([C@@](O)(CNC(=O)c3cc(OC)c4nc(C5CC5)oc4c3)C3CC3)cc3c2OC[C@]3(C)C(N)=O)c1Cl [Example 745]
< 200,,< 200,COc1cc(C(=O)NC[C@](O)(c2cc3c(c(-c4ccnc(C(F)(F)F)c4Cl)n2)OC[C@]3(C)C(N)=O)C2CC2)cc2cn(C(F)F)nc12 [Example 758]
< 200,,< 200,COc1cc(C(=O)NC[C@](O)(c2cc3c(c(-c4ccnc(C(F)(F)F)c4Cl)n2)OC[C@]3(C)C(N)=O)C2CC2)cc2cn(C3(F)CC3)nc12 [Example 760]
< 200,,< 200,COc1cc(C(=O)NC[C@](O)(c2cc3c(c(-c4ccnc(C(F)(F)F)c4Cl)n2)OC[C@]3(C)C(N)=O)C2CC2)cc2oc(C3CC3)nc12 [Example 762]
< 200,,< 200,COc1cc(C(=O)NC[C@](O)(c2cc3c(c(-n4ccc5c(F)cccc54)n2)OC[C@]3(C)C(N)=O)C2CC2)cc2cn(C(F)F)nc12 [Example 776]
< 200,,< 200,COc1cc(C(=O)NC[C@](O)(c2cc3c(c(-n4ccc5c(F)cccc54)n2)OC[C@]3(C)C(N)=O)C2CC2)cc2cn(C3(F)CC3)nc12 [Example 777]

EC50 [1] [nM],EC50 [2] [nM],EC50 [3] [nM],SMILES
< 200,,< 200,COc1cc(C(=O)NC[C@](O)(c2cc3c(c(-n4ccc5c(F)cccc54)n2)OC[C@]3(C)C(N)=O)C2CC2)cc2oc(C3CC3)nc12 [Example 778]
< 200,,< 200,COc1cc(C(=O)NC[C@](O)(c2cc3c(c(-c4ccnc(C(F)F)c4Cl)n2)OC[C@]3(C)C(N)=O)C2CC2)cc2cn(C3CC3)nc12 [Example 780]
< 200,,< 200,COc1cc(C(=O)NC[C@](O)(c2cc3c(c(-c4ccnc(C(F)(F)F)c4Cl)n2)OC[C@]3(C)C(N)=O)C(F)(F)F)cc2cn(C3CC3)nc12 [Example 783]
< 200,,< 200,COc1cc(C(=O)NC[C@](O)(c2cc3c(c(-c4ccnc(C(F)F)c4Cl)n2)OC[C@]3(C)C(N)=O)C2CC2)cc2cn(C(F)F)nc12 [Example 785]
< 200,,< 200,COc1cc(C(=O)NC[C@](O)(c2cc3c(c(-c4ccnc(C(F)F)c4Cl)n2)OC[C@]3(C)C(N)=O)C2CC2)cc2cn(C3(F)CC3)nc12 [Example 786]
< 200,,< 200,COc1cc(C(=O)NC[C@](O)(c2cc3c(c(-c4ccnc(C(F)F)c4Cl)n2)OC[C@]3(C)C(N)=O)C2CC2)cc2oc(C3CC3)nc12 [Example 787]
< 200,,< 200,COc1nccc(-c2nc([C@@](O)(CNC(=O)c3cc(OC)c4nn(C(F)F)cc4c3)C3CC3)cc3c2OC[C@]3(C)C(N)=O)c1Cl [Example 788]
< 200,,< 200,COc1nccc(-c2nc([C@@](O)(CNC(=O)c3cc(OC)c4nn(C5(F)CC5)cc4c3)C3CC3)cc3c2OC[C@]3(C)C(N)=O)c1Cl [Example 789]
< 200,,< 200,COc1cc(C(=O)NC[C@](O)(c2cc3c(c(-c4ccnc(C(F)(F)F)c4F)n2)OC[C@]3(C)C(N)=O)C2CC2)cc2cn(C3CC3)nc12 [Example 794]
< 200,,< 200,COc1cc(C(=O)NC[C@](O)(c2cc3c(c(-c4ccnc(C(F)F)c4Cl)n2)OC[C@]3(C)C(N)=O)C(F)(F)F)cc2cn(C3CC3)nc12 [Example 795]
< 200,,< 200,COc1nccc(-c2nc([C@@](O)(CNC(=O)c3cc(OC)c4nn(C5CC5)cc4c3)C(F)(F)F)cc3c2OC[C@]3(C)C(N)=O)c1Cl [Example 796]
< 200,,< 200,COc1cc(C(=O)NC[C@](O)(c2cc3c(c(-c4ccnc(C(F)(F)F)c4F)n2)OC[C@]3(C)C(N)=O)C2CC2)cc2cn(C3(F)CC3)nc12 [Example 800]
< 200,,< 200,COC1=CC(C(=O)NC[C@](O)(c2cc3c(c(-c4ccnc(C(F)(F)F)c4F)n2)OC[C@]3(C)C(N)=O)C2CC2)=CC2OC(C3CC3)=NC12 (some centres unmarked) [Example 801]
< 200,,< 200,COc1cc(C(=O)NC[C@](O)(c2cc3c(c(-n4ncc5c(F)cccc54)n2)OC[C@]3(C)C(N)=O)C2CC2)cc2cn(C3CC3)nc12 [Example 820]
< 200,,< 200,COc1cc(C(=O)NC[C@](O)(c2cc3c(c(-n4ncc5cc(F)ccc54)n2)OC[C@]3(C)C(N)=O)C2CC2)cc2cn(C3CC3)nc12 [Example 821]
< 200,,< 200,COc1cc(C(=O)NC[C@](O)(c2cc3c(c(-c4ccn5nccc5c4Cl)n2)OC[C@]3(C)C(N)=O)C2CC2)cc2cn(C3CC3)nc12 [Example 824]
< 200,,< 200,COc1cc(C(=O)NC[C@](O)(c2cc3c(c(-n4ccc5c(F)cccc54)n2)OC[C@]3(C)C(N)=O)C(F)(F)F)cc2cn(C3CC3)nc12 [Example 851]
< 200,,< 200,COc1cc(C(=O)NC[C@](O)(c2cc3c(c(-n4ccc5cc(F)ccc54)n2)OC[C@]3(C)C(N)=O)C(F)(F)F)cc2cn(C3CC3)nc12 [Example 852]
< 200,,< 200,COc1cc(C(=O)NC[C@](O)(c2cc3c(c(-n4ccc5c(F)cccc54)n2)OC[C@]3(C)C(N)=O)C2(F)CC2)cc2cn(C3CC3)nc12 [Example 861]
< 200,,< 200,COc1cc(C(=O)NC[C@](O)(c2cc3c(c(-n4ccc5c(OC(F)F)cccc54)n2)OC[C@]3(C)C(N)=O)C2CC2)cc2cn(C3CC3)nc12 [Example 864]
< 200,,< 200,COc1cc(C(=O)NC[C@](O)(c2cc3c(c(-n4ccc5c(F)cccc54)n2)OC[C@]3(C)C(N)=O)C2CC2)cn2cc(C3CC3)nc12 [Example 868]

# From US20240368174A1, “Antiviral Heterocyclic Compounds” (Enanta Pharmaceuticals, Inc., priority 2023, published 2024)
